Experimental findings from ChEMBL document CHEMBL1128039, “Acyl CoA:cholesterol acyltransferase (ACAT) inhibitors: ureas bearing two heterocyclic head groups” (Bioorg Med Chem Lett, 1995) are described below.

This assay concerns Cricetinae gen. sp. Put plainly: In vivo activity, with an ED50 inlowering cholesterol levels in the cholesterol-fed hamster. Format: functional, Cricetulus griseus.

`CCCCCCCN(CCCCCSc1nc(-c2ccccc2)c(-c2ccccc2)[nH]1)C(=O)Nc1ccc(F)cc1F` [LECIMIBIDE]: it took a dose of 3 mg/kg to reach the 50% effect level (ED50).
